Key:
[1] = target: human emopamil binding protein and human 7-dehydrocholesterol reductase co-expressing cell membrane (Homo sapiens (Human), UniProt Q15125); test: hEBP-DHCR7 radioligand filtration binding assay with [3H]-Compound 118A*; settings: radioligand [3H]-Compound 118A*; HEK293 membrane co-expressing hEBP and DHCR7
Procedure, shortened: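 HEK293 membranes transiently co-expressing hEBP and hDHCR7 (10 μg/well) were incubated with [3H]-Compound 118A* (added at 25 nM) and compounds (8 doses, final 0.06–5000 nM, n=2) for 3 h at 22 °C. Bound radioactivity was read after PEI-treated GF/B filtration. IC50 came from a Hill fit of % inhibition and was converted to Ki.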

[2] = test system: zymostenol accumulation in EpiSC-derived OPCs (EBP); test: GC/MS-based sterol profiling, zymostenol accumulation; format: cell-based, mouse; settings: Mus musculus, 24 h, 8 doses from 0.15 nM to 333 nM, read-out: mZymo GCMS EC50
Procedure, shortened: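 EpiSC-derived mouse OPCs plated at 100,000 cells/well in N2B27 without growth factors and treated 24 h. Sterols extracted, silylated with BSTFA and measured by GC/MS (EI, full scan), quantified against cholesterol-d7. Zymostenol normalized to levels after 24 h with 100 nM positive control reference.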

human EBP = human EBP (Homo sapiens (Human), UniProt Q15125); test: Competition binding assay (SPA) to determine compound affinity to EBP; settings: radioligand [3H]-Ifenprodil 10 nM; Ki=IC50/(1+[L]/Kd); HEK293 membrane; read-out: hEBP SPA Ki
Method: Membrane preparation: To examine compound binding affinity to EBP, human EBP was overexpressed in human embryonic kidney 293 cells. Cell pellet was lysed in 10 times weight binding buffer (50 mM Tris, 5 mM MgCl2, 0.1 mM EDTA, 1× protease inhibitor cocktail, pH 7.5) on ice by using a dounce homogenizer. The solution was centrifuged at 25,000 g for 50 min at 4° C. The membrane pellet was re-suspended in binding buffer and run through a 25 5/8 gauge needle. After checking the concentration by Bradford assay, the whole cell membrane solution was adjusted to 20 mg/mL and stored at −80° C.
This binding solution was centrifuged at 400 g for 5 minutes to collect the bead/membrane mixture. After re-suspending the pellet in binding buffer at the same calculated volume with 0.01% BSA (Sigma A1933), the bead/membrane mixture was added in 384-well low-binding surface plate (PerkinElmer Cat #6057480) at 25 i/well. Radioligand at different concentrations with and without the non-radio-labeled same ligand 5 uM (for nonspecific and total signal, respectively) was added to bring final volume to 50 i/well with DMSO concentration at 0.1%. At equilibrium (3 hours after ligand addition), radiometric signal CPM was counted by using a Microbeta2 microplate counter (Perkinelmer).
Competition binding assay to determine compound affinity: The same conditions of the radioligand Kd study were used for compound single dose percentage inhibition and equilibrium dissociation constant Ki examinations, except 50 nL compound DMSO stock was pre-added in 384-well low-binding surface plate (PerkinElmer Cat #6057480) by Echo 550 (Labcyte) to reach the final concentration for single dose test at 1 uM, and dose response test from 0.06 nM to 5 uM (8 dose, 5 times dilution). A pre-incubated bead/membrane mixture was added in compound plate at 0.3 mg beads and […] membrane per well. […] At equilibrium (3 hours after ligand addition), radiometric signal was counted as described above. The percentage inhibition of compound at each testing concentration was calculated by normalizing each condition's CPM readout to full block (5 uM non-radiolabeled ligand) and non-block (DMSO) control conditions. Compound binding inhibition IC50 was determined by nonlinear regression fitting of percentage inhibition plot against compound concentration. Compound Ki was calculated from the equation Ki=IC50/(1+[L]/Kd), which [L] was radioligand concentration used in assay. All tests had N bigger or equal to 2.

human emopamil binding protein and human 7-dehydrocholesterol reductase co-expressing cell membrane, sequence (Q15125 whole entry): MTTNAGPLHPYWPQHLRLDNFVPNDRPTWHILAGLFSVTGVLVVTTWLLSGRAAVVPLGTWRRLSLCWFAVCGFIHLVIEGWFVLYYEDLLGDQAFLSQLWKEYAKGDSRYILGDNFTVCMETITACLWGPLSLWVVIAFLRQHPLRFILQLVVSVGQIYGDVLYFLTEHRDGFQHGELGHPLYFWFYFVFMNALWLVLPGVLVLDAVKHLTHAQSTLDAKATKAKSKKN
human EBP, sequence (Q15125 whole entry): as above

Row | Ki [1] | EC50 [2] | Ki (human EBP) | SMILES
1 | 0.176 µM | 0.2 µM | 0.059 µM | C[C@@H](Cc1cnn(CC(F)(F)F)c1)CN1CCC2(C1)CS(=O)(=O)C2 (single isomer, unassigned) [Compound 154A]
2 | 0.143 µM | 0.25 µM | 0.053 µM | C[C@H](Cc1cnn(CC(F)(F)F)c1)CN1CCC2(C1)CS(=O)(=O)C2 (single isomer, unassigned) [Compound 154B]

Continued, compound first:

Row | SMILES | Ki [1] | EC50 [2] | Ki (human EBP)
3 | C[C@H](Cc1ccc(C(F)F)cc1)CN1CCC2(C1)CS(=O)(=O)C2 (single isomer, unassigned) [Compound 128B] | 0.0257 µM | 0.0048 µM | 0.045 µM
4 | CC(C)(CN1CCC2(C1)CS(=O)(=O)C2)Oc1ccc(F)cc1 [Example 132, 6-(2-(4-Fluorophenoxy)-2-methylpropyl)-2-thia-6-azaspiro[3.4]octane 2,2-dioxide] | 0.0147 µM | 0.0072 µM | 0.026 µM
5 | CC(Cc1cc(C(F)(F)F)nn1C(C)C)CN1CCC2(C1)CS(=O)(=O)C2 (racemic) [Example 155, (S)-6-(3-(1-Isopropyl-3-(trifluoromethyl)-1H-pyrazol-5-yl)-2-methylpropyl)-2-thia-6-azaspiro[3.4]octane 2,2-dioxide and (R)-6-(3-(1-isopropyl-3-(trifluoromethyl)-1H-pyrazol-5-yl)-2-methylpropyl)-2-thia-6-azaspiro[3.4]octane 2,2-dioxide] | 0.187 µM | 0.003 µM | 0.014 µM
6 | O=S1(=O)CC2(CCN(CC(F)Cc3ccc(C(F)(F)F)cc3)C2)C1 (racemic) [Example 142, (S)-6-(2-Fluoro-3-(4-(trifluoromethyl)phenyl)propyl)-2-thia-6-azaspiro[3.4]octane 2,2-dioxide and (R)-6-(2-fluoro-3-(4-(trifluoromethyl)phenyl)propyl)-2-thia-6-azaspiro[3.4]octane 2,2-dioxide] | 0.0161 µM | 0.014 µM | 0.035 µM
7 | C[C@H](Cc1cnc(C(F)(F)F)nc1)CN1CCC2(C1)CS(=O)(=O)C2 (single isomer, unassigned) [Compound 145B] | 0.106 µM | 0.055 µM | 0.1 µM
8 | CC(C)(CN1CCC2(C1)CS(=O)(=O)C2)Oc1ccccc1F [Example 133, 6-(2-(2-Fluorophenoxy)-2-methylpropyl)-2-thia-6-azaspiro[3.4]octane 2,2-dioxide] | 0.0866 µM | 0.072 µM | 0.089 µM

Source: US20240400579A1, “SPIROCYCLIC MODULATORS OF CHOLESTEROL BIOSYNTHESIS AND THEIR USE FOR PROMOTING REMYELINATION” (GENENTECH, INC., priority 2021, published 2024)
